Legend:
DspE [1] = biological target: T1, DspE (Erwinia amylovora, UniProt O54581); test: two-electrode voltage clamp, Xenopus oocytes; format: cell-based
T1 construct: full-length untagged ORF in pGH19, cRNA-injected Xenopus laevis oocytes; printed UniProt entry is strain Ea321, strain of the oocyte ORF not restated

DspE [2] = biological target: T1, DspE; test: fluorescent dye uptake, Xenopus oocytes; format: cell-based; settings: permeation through channel; ND96 bath saline with fluorescein, 20 h
AvrE [3] = biological target: T2, AvrE (Pseudomonas syringae group genomosp. 3, UniProt Q887C9); test: fluorescent dye uptake, Xenopus oocytes; format: cell-based; settings: permeation through channel; ND96 bath saline with fluorescein, 20 h
T2 construct: full-length untagged ORF in pGH19, cRNA-injected Xenopus laevis oocytes

DspE (MBP-DspE) = biological target: T3, DspE (MBP-DspE) (Erwinia amylovora, UniProt O54581); test: liposome carboxyfluorescein release inhibition; format: biochemical; settings: 20 mM HEPES, 300 mM NaCl, pH 8.0; 0.05-0.15 μM DspE; soybean lipid liposomes; channel blocker
T3 construct: full-length, N-terminal MBP-His8-PPX-FLAG tag kept; E. coli BL21(DE3); reconstituted in soybean liposomes; printed UniProt entry is strain Ea321, cloned gene from Ea273

AvrE [4] = biological target: T2, AvrE; test: two-electrode voltage clamp, Xenopus oocytes; format: cell-based; settings: 50 mV test pulse; ND96 saline, pH 7.5; inhibitor in bath saline

T1 sequence (O54581 whole entry): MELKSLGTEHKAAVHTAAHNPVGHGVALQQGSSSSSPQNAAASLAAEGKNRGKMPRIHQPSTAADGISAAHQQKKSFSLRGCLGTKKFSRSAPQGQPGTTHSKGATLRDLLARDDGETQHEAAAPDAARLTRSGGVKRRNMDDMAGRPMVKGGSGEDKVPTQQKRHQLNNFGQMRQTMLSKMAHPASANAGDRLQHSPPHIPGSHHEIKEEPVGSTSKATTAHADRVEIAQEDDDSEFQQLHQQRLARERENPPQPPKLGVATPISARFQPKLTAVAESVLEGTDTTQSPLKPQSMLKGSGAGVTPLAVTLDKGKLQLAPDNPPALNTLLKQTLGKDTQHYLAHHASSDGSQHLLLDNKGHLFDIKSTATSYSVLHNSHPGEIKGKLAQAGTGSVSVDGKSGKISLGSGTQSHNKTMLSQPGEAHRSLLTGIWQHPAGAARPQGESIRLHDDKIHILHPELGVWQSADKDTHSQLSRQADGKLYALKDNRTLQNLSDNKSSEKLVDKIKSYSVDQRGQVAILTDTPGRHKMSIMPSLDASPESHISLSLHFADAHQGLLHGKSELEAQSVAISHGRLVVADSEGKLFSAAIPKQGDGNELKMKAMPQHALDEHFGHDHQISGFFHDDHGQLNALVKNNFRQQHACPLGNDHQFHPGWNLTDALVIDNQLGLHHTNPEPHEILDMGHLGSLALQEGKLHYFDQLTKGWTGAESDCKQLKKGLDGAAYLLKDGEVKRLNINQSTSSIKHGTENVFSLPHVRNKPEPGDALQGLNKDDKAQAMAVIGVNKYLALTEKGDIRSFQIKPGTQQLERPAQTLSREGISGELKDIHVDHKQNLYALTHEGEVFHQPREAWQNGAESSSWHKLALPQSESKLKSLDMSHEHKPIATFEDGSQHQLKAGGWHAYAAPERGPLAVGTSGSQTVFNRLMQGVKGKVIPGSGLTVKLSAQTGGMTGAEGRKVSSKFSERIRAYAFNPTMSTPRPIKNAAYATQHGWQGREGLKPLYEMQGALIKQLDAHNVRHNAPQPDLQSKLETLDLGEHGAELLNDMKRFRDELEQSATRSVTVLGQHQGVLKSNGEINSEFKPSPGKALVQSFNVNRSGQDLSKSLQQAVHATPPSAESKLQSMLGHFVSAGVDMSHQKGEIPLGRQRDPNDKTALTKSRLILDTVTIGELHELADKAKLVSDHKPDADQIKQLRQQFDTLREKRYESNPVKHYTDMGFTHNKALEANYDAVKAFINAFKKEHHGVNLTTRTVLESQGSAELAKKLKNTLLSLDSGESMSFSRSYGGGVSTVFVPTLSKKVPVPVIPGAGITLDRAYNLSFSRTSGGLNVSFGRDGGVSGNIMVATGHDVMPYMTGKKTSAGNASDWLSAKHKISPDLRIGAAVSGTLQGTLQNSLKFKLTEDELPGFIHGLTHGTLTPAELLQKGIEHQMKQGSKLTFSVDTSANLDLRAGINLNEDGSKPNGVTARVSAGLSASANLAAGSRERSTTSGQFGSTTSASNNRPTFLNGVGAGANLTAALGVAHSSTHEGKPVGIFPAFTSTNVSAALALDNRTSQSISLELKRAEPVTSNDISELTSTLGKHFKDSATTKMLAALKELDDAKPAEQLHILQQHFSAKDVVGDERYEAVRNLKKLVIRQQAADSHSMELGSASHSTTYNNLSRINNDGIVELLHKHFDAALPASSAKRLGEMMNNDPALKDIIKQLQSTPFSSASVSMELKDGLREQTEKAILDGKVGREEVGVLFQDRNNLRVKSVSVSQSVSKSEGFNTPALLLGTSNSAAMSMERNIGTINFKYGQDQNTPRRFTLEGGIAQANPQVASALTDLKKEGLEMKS
T2 sequence (Q887C9 whole entry): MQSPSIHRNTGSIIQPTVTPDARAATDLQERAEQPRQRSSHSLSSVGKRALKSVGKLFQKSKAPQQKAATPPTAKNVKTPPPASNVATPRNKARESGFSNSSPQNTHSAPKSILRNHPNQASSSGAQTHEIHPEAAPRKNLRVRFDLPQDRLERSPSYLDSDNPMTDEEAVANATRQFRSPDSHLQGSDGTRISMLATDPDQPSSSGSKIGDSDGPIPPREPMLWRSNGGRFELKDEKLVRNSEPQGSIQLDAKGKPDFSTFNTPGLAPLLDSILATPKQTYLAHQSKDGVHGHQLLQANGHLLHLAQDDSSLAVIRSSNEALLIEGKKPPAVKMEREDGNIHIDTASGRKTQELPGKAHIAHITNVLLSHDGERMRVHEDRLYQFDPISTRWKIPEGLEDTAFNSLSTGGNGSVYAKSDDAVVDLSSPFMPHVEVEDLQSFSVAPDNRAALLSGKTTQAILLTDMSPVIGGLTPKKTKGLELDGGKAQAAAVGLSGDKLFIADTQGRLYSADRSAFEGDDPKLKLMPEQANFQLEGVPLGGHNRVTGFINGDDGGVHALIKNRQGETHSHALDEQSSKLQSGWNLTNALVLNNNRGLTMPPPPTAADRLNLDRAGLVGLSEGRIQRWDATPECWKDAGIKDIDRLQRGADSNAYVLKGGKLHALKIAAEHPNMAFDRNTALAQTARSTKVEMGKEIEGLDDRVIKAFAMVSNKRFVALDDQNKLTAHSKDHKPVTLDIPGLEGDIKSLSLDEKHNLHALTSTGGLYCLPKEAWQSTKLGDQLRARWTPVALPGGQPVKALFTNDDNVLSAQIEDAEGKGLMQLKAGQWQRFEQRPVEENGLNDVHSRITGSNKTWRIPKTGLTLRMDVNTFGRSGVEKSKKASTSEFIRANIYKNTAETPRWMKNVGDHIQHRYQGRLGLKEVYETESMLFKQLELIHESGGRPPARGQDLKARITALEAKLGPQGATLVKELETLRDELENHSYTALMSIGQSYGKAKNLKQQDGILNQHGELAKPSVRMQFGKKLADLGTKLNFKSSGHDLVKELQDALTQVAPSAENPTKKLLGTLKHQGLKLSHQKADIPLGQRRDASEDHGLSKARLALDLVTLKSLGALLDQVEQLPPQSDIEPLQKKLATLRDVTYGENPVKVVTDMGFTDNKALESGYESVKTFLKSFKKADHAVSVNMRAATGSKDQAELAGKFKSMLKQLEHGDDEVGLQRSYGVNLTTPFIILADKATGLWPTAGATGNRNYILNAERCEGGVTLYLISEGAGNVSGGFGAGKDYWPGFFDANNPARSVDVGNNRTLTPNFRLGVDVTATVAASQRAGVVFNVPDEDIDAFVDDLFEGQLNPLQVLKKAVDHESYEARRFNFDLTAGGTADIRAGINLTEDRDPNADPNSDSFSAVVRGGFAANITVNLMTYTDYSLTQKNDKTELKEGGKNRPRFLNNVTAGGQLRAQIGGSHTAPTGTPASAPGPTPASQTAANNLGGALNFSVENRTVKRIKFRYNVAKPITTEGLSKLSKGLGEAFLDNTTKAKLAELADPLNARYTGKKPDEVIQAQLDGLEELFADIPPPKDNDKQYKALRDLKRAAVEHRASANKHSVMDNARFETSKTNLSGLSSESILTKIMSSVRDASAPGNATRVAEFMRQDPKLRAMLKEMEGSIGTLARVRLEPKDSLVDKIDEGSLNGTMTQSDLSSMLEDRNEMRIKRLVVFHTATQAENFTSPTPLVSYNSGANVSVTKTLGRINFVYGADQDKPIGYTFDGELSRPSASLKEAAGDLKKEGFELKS

NCCNC(=O)CCN(CCC(=O)NCCN)CCN(CCC(=O)NCCN)CCC(=O)NCCN [G0, PAMAM G0]
inhibition at 10000 µM (DspE [1]; read-out: % inhibition at 10 mM): 68%

O=C1OC2(c3ccc(O)cc3Oc3cc(O)ccc32)c2ccccc21 [fluorescein]
fluorescent dye uptake, Xenopus oocytes (DspE [2]): fluorescein entered oocytes expressing DspE or AvrE, whereas eGFP could not | fluorescent dye uptake, Xenopus oocytes (AvrE [3]): fluorescein entered oocytes expressing DspE or AvrE, whereas eGFP could not

PAMAM G1
% inhibition at 10 mM (DspE [1]; 50 mV test pulse, ND96 saline, pH 7.5, inhibitor in bath saline): 71% | IC50 (DspE (MBP-DspE)): 31 µM | % inhibition at 10 mM (AvrE [4]): 93%

Reference: publication doi:10.1101/2023.07.29.547699, “Bacterial pathogens deliver water/solute-permeable channels as a virulence strategy” (bioRxiv, 2023)
